One assay addresses T1, human mTOR (Homo sapiens, UniProt P42345).
T1 construct: the portion corresponding to 1362-2549aa at the C terminus of human mTOR; made in house
Description: mTOR Kinase Activity Inhibition Test. The format is biochemical. The conditions noted are these: His-tagged mTOR (1362C), biotinylated peptide substrate, ATP, 3 hours at room temperature, fluorescence resonance energy transfer 665 nm/620 nm; read-out: IC50 value of mTOR enzyme inhibitory activity. In a few lines:
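Purified His-tagged human mTOR (1362–2549aa, from HEK293) was used with biotinylated peptide (8 μg/mL in enzyme solution) in HEPES pH 7.5 with 20 mM MnCl2. Compounds were diluted in 20 μM ATP solution, and the reaction ran 3 h at RT. Phospho-S6K(Thr389) HTRF was read as the 665/620 nm ratio, and IC50 came from % inhibition versus controls.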

In the next assay the test system is WM-266-4 cells. Description: Cell Proliferation Inhibitory Test. The format is cell-based. The conditions noted are these: Homo sapiens, 72 h, cultured three days with test compound, MTT, read-out: 50% cell proliferation inhibitory activity (GI50 value). An outline of the steps:
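Cells cultured overnight, then exposed to serially diluted compound for three days; cell amount read by MTT. GI50 solved from 100×[(T−T0)/(C−T0)]=50, with T0 the value at time of compound addition and C the untreated three-day control.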

The results in this text go back to patent US8436012B2, “Imidazopyridin-2-one derivatives” (Daiichi Sankyo Company, Limited, priority 2008, dated 2013).

SMILES strings stand for the structures.

T1 sequence (P42345 1362-2549): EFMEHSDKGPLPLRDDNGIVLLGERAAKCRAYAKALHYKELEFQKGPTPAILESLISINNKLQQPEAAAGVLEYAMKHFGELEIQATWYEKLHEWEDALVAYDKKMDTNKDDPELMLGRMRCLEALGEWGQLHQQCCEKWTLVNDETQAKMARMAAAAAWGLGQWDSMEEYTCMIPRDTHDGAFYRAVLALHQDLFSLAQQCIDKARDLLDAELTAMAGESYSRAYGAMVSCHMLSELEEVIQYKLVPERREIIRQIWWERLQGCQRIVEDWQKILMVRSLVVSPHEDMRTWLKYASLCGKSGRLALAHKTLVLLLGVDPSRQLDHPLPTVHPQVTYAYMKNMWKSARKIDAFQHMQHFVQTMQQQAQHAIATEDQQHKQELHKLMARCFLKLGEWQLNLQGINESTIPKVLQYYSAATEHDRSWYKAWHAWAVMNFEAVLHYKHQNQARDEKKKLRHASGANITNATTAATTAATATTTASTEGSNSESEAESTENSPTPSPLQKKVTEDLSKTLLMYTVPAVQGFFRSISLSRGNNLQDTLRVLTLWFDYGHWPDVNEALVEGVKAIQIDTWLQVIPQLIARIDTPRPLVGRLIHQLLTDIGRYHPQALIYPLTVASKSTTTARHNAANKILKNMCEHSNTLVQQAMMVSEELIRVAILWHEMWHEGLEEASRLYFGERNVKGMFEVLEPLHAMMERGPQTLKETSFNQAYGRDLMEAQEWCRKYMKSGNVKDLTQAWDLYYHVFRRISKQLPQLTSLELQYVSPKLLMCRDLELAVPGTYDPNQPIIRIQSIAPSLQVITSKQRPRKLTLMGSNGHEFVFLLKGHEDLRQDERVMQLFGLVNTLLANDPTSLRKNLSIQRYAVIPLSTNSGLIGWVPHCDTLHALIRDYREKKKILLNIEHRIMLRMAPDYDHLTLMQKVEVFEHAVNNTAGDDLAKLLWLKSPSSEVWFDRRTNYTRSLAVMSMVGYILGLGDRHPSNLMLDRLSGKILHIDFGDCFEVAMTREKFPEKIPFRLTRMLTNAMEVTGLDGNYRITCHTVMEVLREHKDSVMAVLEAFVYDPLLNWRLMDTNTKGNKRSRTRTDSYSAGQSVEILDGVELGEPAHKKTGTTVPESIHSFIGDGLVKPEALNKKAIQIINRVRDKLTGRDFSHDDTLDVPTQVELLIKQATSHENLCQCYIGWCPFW

`O=c1[nH]c2ncc(-c3cnc4[nH]ccc4c3)cc2n1C[C@@H]1COCCO1` [Example 39, 1-[(2R)-1,4-Dioxan-2-ylmethyl]-6-(1H-pyrrolo[2,3-b]pyridin-5-yl)-1,3-dihydro-2H-imidazo[4,5-b]pyridin-2-one]: the IC50 (usually the concentration that gives 50% inhibition) on human mTOR was less than 50 nM. For the same compound, in the assay on WM-266-4 cells, the GI50 is less than 3000 nM.

As for `CO[C@@H]1CC[C@H](Cn2c(=O)[nH]c3ncc(-c4cnc5[nH]ccc5c4)cc32)OC1` [Example 136, 2,6-Anhydro-1,3,4-trideoxy-5-O-methyl-1-[2-oxo-6-(1H-pyrrolo[2,3-b]pyridin-5-yl)-2,3-dihydro-1H-imidazo[4,5-b]pyridin-1-yl]-L-threo-hexitol], the IC50 at human mTOR is less than 50 nM. For the same compound, the GI50 with WM-266-4 cells was less than 3000 nM.

With `Cc1c[nH]c2ncc(-c3cnc4[nH]c(=O)n(C[C@H]5COCCO5)c4c3)c(C)c12` [Example 124, 6-(3,4-Dimethyl-1H-pyrrolo[2,3-b]pyridin-5-yl)-1-[(2S)-1,4-dioxan-2-ylmethyl]-1,3-dihydro-2H-imidazo[4,5-b]pyridin-2-one], the IC50 at human mTOR is less than 50 nM. In the assay with WM-266-4 cells, the GI50 was less than 3000 nM.

Regarding `CO[C@@H]1CC[C@H](Cn2c(=O)[nH]c3ncc(-c4cnc5[nH]cc(C)c5c4C)cc32)OC1` [Example 147, 2,6-Anhydro-1,3,4-trideoxy-1-[6-(3,4-dimethyl-1H-pyrrolo[2,3-b]pyridin-5-yl)-2-oxo-2,3-dihydro-1H-imidazo[4,5-b]pyridin-1-yl]-5-O-methyl-L-threo-hexitol], the IC50 on human mTOR is less than 50 nM. The GI50 in the assay with WM-266-4 cells is less than 3000 nM.

Take `O=c1[nH]c2ncc(-c3cnc4[nH]ccc4c3)cc2n1CC1CCS(=O)(=O)CC1` [Example 97, 1-[(1,1-Dioxidotetrahydro-2H-thiopyran-4-yl)methyl]-6-(1H-pyrrolo[2,3-b]pyridin-5-yl)-1,3-dihydro-2H-imidazo[4,5-b]pyridin-2-one]: on human mTOR, the IC50 was less than 50 nM. For the same compound, the GI50 with WM-266-4 cells was 3000 to 25000 nM.

Consider `Cc1nc2[nH]c(=O)n(C[C@H]3COCCO3)c2cc1-c1cnc2[nH]cc(Cl)c2c1` [Example 46, 6-(3-Chloro-1H-pyrrolo[2,3-b]pyridin-5-yl)-1-[(2S)-1,4-dioxan-2-ylmethyl]-5-methyl-1,3-dihydro-imidazo[4,5-b]pyridin-2-one], for which the IC50 on human mTOR was less than 50 nM. In addition, the GI50 in the assay with WM-266-4 cells is less than 3000 nM.

As for `CO[C@H]1CCO[C@@H](Cn2c(=O)[nH]c3ncc(-c4cnc5[nH]cc(C)c5c4C)cc32)C1` [Example 151, 2,6-Anhydro-1,3,5-trideoxy-1-[6-(3,4-dimethyl-1H-pyrrolo[2,3-b]pyridin-5-yl)-2-oxo-2,3-dihydro-1H-imidazo[4,5-b]pyridin-1-yl]-4-O-methyl-L-threo-hexitol], the concentration for half-maximal inhibition (IC50) at human mTOR was less than 50 nM. In the assay with WM-266-4 cells, the GI50 was less than 3000 nM.

On to `CO[C@@H]1COC[C@H]1Cn1c(=O)[nH]c2ncc(-c3cnc4[nH]ccc4c3)cc21` (racemic) [Example 64, 1-{[trans-4-Methoxytetrahydrofuran-3-yl]methyl}-6-(1H-pyrrolo[2,3-b]pyridin-5-yl)-1,3-dihydro-2H-imidazo[4,5-b]pyridin-2-one], for which the IC50 at human mTOR is less than 50 nM. Also, the GI50 in the assay on WM-266-4 cells was less than 3000 nM.

`CC(=O)c1c[nH]c2ncc(-c3cnc4[nH]c(=O)n(CC5CCOCC5)c4c3)cc12` [Example 85, 6-(3-Acetyl-1H-pyrrolo[2,3-b]pyridin-5-yl)-1-(tetrahydro-2H-pyran-4-ylmethyl)-1,3-dihydro-2H-imidazo[4,5-b]pyridin-2-one]: the IC50 on human mTOR lay within 100 to 5000 nM. For the same compound, the GI50 in the assay with WM-266-4 cells is 3000 to 25000 nM.

For the compound `Cc1c(-c2cnc3[nH]c(=O)n(C[C@H]4CC[C@@H](O)CO4)c3c2)cnc2[nH]ccc12` [Example 143, 2,6-Anhydro-1,3,4-trideoxy-1-[6-(4-methyl-1H-pyrrolo[2,3-b]pyridin-5-yl)-2-oxo-2,3-dihydro-1H-imidazo[4,5-b]pyridin-1-yl]-L-threo-hexitol], at human mTOR, the IC50 was less than 50 nM. The GI50 in the assay on WM-266-4 cells was less than 3000 nM.

For `O=c1[nH]c2ncc(-c3cnc4[nH]ccc4c3)cc2n1CC1COCCN1` (centres unmarked) [Example 108, 1-(Morpholin-3-ylmethyl)-6-(1H-pyrrolo[2,3-b]pyridin-5-yl)-1,3-dihydro-2H-imidazo[4,5-b]pyridin-2-one], the IC50 on human mTOR is less than 50 nM. For the same compound, the GI50 with WM-266-4 cells is less than 3000 nM.

Consider `CO[C@@H]1CCO[C@H](Cn2c(=O)[nH]c3ncc(-c4cnc5[nH]ccc5c4)cc32)C1` [Example 138, 2,6-Anhydro-1,3,5-trideoxy-4-O-methyl-1-[2-oxo-6-(1H-pyrrolo[2,3-b]pyridin-5-yl)-2,3-dihydro-1H-imidazo[4,5-b]pyridin-1-yl]-D-threo-hexitol], for which, on human mTOR, the IC50 was less than 50 nM. Besides, the GI50 in the assay with WM-266-4 cells was less than 3000 nM.

For `O=c1[nH]c2ncc(-c3cnc4ccnn4c3)cc2n1CC1CCOCC1` [Example 73, 6-Pyrazolo[1,5-a]pyrimidin-6-yl-1-(tetrahydro-2H-pyran-4-ylmethyl)-1,3-dihydro-2H-imidazo[4,5-b]pyridin-2-one], the IC50 on human mTOR is 100 to 5000 nM. For the same compound, the GI50 in the assay with WM-266-4 cells is 3000 to 25000 nM.

Regarding `CO[C@@H]1CC[C@H](Cn2c(=O)[nH]c3ncc(-c4cnc5[nH]ccc5c4C)cc32)OC1` [Example 146, 2,6-Anhydro-1,3,4-trideoxy-5-O-methyl-1-[6-(4-methyl-1H-pyrrolo[2,3-b]pyridin-5-yl)-2-oxo-2,3-dihydro-1H-imidazo[4,5-b]pyridin-1-yl]-L-threo-hexitol], the concentration for half-maximal inhibition (IC50) on human mTOR was less than 50 nM. Also, the GI50 in the assay with WM-266-4 cells was less than 3000 nM.

Consider `O=c1[nH]c2ncc(-c3cnc4[nH]ccc4c3)cc2n1C[C@H]1CC[C@H](O)CO1` (racemic) [Example 111, 2,6-Anhydro-1,3,4-trideoxy-1-[2-oxo-6-(1H-pyrrolo[2,3-b]pyridin-5-yl)-2,3-dihydro-1H-imidazo[4,5-b]pyridin-1-yl]-DL-erythro-hexitol], for which, at human mTOR, the IC50 was less than 50 nM. For the same compound, the GI50 with WM-266-4 cells is less than 3000 nM.

With `Cc1nc2[nH]c(=O)n(C[C@H]3COCCO3)c2cc1-c1cnc2[nH]ccc2c1C` [Example 45, 1-[(2S)-1,4-Dioxan-2-ylmethyl]-5-methyl-6-(4-methyl-1H-pyrrolo[2,3-b]pyridin-5-yl)-1,3-dihydro-imidazo[4,5-b]pyridin-2-one], the IC50 at human mTOR is less than 50 nM. Moreover, the GI50 in the assay on WM-266-4 cells was less than 3000 nM.

Turning to `O=c1[nH]c2ncc(-c3ccc4[nH]ccc4c3)cc2n1CC1CCCCC1` [Example 6, 1-(Cyclohexylmethyl)-6-(1H-indol-5-yl)-1,3-dihydro-2H-imidazo[4,5-b]pyridin-2-one], the 50% inhibitory concentration (IC50) on human mTOR was less than 50 nM. The GI50 with WM-266-4 cells was less than 3000 nM.

For `COC1(Cn2c(=O)[nH]c3ncc(-c4cnc5[nH]ccc5c4)cc32)CCOCC1` [Example 68, 1-[(4-Methoxytetrahydro-2H-pyran-4-yl)methyl]-6-(1H-pyrrolo[2,3-b]pyridin-5-yl)-1,3-dihydro-2H-imidazo[4,5-b]pyridin-2-one], at human mTOR, the 50% inhibitory concentration (IC50) is less than 50 nM. Further, the GI50 in the assay on WM-266-4 cells was less than 3000 nM.

Turning to `O=c1[nH]c2ncc(-c3cnc4[nH]ccc4c3)cc2n1CC(F)C1CCOCC1` (centres unmarked) [Example 51, 1-[2-Fluoro-2-(tetrahydro-2H-pyran-4-yl)ethyl]-6-(1H-pyrrolo[2,3-b]pyridin-5-yl)-1,3-dihydro-2H-imidazo[4,5-b]pyridin-2-one], the IC50 on human mTOR was less than 50 nM. Moreover, the GI50 with WM-266-4 cells is less than 3000 nM.

Consider `O=c1[nH]c2ncc(-c3cnc4[nH]cc(F)c4c3)cc2n1CC1CCOCC1` [Example 96, 6-(3-Fluoro-1H-pyrrolo[2,3-b]pyridin-5-yl)-1-(tetrahydro-2H-pyran-4-ylmethyl)-1,3-dihydro-2H-imidazo[4,5-b]pyridin-2-one], for which the IC50 on human mTOR was less than 50 nM. The GI50 in the assay on WM-266-4 cells is less than 3000 nM.

Regarding `Cc1nc2[nH]c(=O)n(C[C@H]3COCCO3)c2cc1-c1cnc2[nH]ccc2c1` [Example 44, 1-[(2S)-1,4-Dioxan-2-ylmethyl]-5-methyl-6-(1H-pyrrolo[2,3-b]pyridin-5-yl)-1,3-dihydro-imidazo[4,5-b]pyridin-2-one], the half-inhibitory concentration (IC50) at human mTOR is less than 50 nM. For the same compound, the GI50 with WM-266-4 cells was less than 3000 nM.

Consider `O=c1[nH]c2ncc(-c3cnc4[nH]ccc4c3)cc2n1C1CCOCC1` [Example 19, 6-(1H-Pyrrolo[2,3-b]pyridin-5-yl)-1-(tetrahydro-2H-pyran-4-yl)-1,3-dihydro-2H-imidazo[4,5-b]pyridin-2-one], for which the IC50 at human mTOR was less than 50 nM. Moreover, the GI50 with WM-266-4 cells was less than 3000 nM.

In the case of `CS(=O)(=O)N1CCC(Cn2c(=O)[nH]c3ncc(-c4ccc5[nH]ccc5c4)cc32)CC1` [Example 9, 6-(1H-Indol-5-yl)-1-{[1-(methanesulfonyl)piperidin-4-yl]methyl}-1,3-dihydro-2H-imidazo[4,5-b]pyridin-2-one], at human mTOR, the concentration for half-maximal inhibition (IC50) was less than 50 nM. In addition, in the assay with WM-266-4 cells, the GI50 is less than 3000 nM.

With `CN(C)Cc1c[nH]c2ncc(-c3cnc4[nH]c(=O)n(CC5CCOCC5)c4c3)cc12` [Example 89, 6-{3-[(Dimethylamino)methyl]-1H-pyrrolo[2,3-b]pyridin-5-yl}-1-(tetrahydro-2H-pyran-4-ylmethyl)-1,3-dihydro-2H-imidazo[4,5-b]pyridin-2-one], the IC50 at human mTOR lay within 100 to 5000 nM. Moreover, in the assay with WM-266-4 cells, the GI50 fell in the range of 3000 to 25000 nM.

In the case of `O=c1[nH]c2ncc(-c3cnc4[nH]ccc4c3)cc2n1CC1CCOCC1` [Example 15, 6-(1H-Pyrrolo[2,3-b]pyridin-5-yl)-1-(tetrahydro-2H-pyran-4-ylmethyl)-1,3-dihydro-2H-imidazo[4,5-b]pyridin-2-one], at human mTOR, the IC50 is less than 50 nM. Further, in the assay on WM-266-4 cells, the GI50 was less than 3000 nM.
